From ChEMBL document CHEMBL4118239, “Novel leucine ureido derivatives as aminopeptidase N inhibitors using click chemistry” (Bioorg Med Chem, 2018)
The source made the active and inactive calls. The calls are words filed in the database; no cut-off is given here.

How the values were obtained:
Aminopeptidase N [1] = target: T1, Aminopeptidase N (Homo sapiens, UniProt P15144); test: Inhibition of APN in human PLC/PRF/5 cells using L-Leu-pnitroanilide as substrate pretreated for 5 mins followed by substrate addition measured after 1 hr; assay type: cell-based
T1 sequence (P15144 whole entry): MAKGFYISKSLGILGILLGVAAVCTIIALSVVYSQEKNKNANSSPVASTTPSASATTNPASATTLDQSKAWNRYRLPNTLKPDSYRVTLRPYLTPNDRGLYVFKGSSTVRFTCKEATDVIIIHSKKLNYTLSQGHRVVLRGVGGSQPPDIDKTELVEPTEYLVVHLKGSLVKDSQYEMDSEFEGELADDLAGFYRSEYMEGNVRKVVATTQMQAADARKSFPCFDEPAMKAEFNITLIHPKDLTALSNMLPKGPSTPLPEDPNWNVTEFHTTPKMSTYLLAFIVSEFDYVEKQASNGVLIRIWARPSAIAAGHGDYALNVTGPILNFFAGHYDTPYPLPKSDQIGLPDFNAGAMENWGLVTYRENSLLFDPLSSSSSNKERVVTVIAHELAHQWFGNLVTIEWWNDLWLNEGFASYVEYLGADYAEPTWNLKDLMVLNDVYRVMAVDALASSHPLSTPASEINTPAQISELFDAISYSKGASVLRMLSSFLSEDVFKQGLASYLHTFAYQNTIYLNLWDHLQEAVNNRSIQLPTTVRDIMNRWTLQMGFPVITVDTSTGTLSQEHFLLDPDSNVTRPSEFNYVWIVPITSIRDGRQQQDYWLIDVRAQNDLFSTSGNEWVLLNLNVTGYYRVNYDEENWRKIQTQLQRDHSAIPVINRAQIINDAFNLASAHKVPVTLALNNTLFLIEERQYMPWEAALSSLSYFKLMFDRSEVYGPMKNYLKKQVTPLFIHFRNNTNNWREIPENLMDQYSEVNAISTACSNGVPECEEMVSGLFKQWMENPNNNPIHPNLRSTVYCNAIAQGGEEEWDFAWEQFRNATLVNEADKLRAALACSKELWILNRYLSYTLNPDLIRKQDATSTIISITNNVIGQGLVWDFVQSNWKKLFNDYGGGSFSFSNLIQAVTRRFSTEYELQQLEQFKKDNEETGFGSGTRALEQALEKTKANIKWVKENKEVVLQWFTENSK

Aminopeptidase N [2] = target: T2, Aminopeptidase N (Sus scrofa, UniProt P15145); test: Inhibition of APN in porcine kidney microsomes using L-Leu-pnitroanilide as substrate pretreated for 5 mins followed by substrate addition measured after 30 mins
T2 sequence (P15145 whole entry): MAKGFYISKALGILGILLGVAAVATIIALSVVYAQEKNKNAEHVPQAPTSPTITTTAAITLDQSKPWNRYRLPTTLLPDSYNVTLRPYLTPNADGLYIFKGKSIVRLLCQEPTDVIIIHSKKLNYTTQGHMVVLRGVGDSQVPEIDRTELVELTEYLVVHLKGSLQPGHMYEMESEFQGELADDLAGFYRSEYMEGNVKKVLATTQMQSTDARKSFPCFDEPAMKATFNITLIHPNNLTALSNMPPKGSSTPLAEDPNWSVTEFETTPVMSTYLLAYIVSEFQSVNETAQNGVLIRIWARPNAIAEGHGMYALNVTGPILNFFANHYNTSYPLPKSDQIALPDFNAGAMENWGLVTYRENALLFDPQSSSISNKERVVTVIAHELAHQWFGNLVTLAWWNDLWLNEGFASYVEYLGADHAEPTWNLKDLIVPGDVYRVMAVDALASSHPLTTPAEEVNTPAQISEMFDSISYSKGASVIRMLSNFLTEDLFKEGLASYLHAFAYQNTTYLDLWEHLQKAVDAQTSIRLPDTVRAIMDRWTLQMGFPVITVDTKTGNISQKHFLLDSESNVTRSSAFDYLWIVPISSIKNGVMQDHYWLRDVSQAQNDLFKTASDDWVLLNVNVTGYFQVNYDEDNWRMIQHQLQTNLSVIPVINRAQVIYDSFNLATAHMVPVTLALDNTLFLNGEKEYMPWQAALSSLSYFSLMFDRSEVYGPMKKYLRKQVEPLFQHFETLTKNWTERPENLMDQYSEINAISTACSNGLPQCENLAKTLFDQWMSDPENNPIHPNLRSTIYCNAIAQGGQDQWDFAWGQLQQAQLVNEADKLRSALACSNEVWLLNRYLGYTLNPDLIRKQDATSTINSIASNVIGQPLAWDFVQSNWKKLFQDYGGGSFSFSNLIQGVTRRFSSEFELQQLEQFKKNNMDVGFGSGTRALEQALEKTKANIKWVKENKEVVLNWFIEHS

Aminopeptidase N [3] = target: T1, Aminopeptidase N; test: Inhibition of APN in human ES2 cells using L-Leu-pnitroanilide as substrate pretreated for 5 mins followed by substrate addition measured after 1 hr; assay type: cell-based
Thoracic aorta [4] = test: Antiangiogenic activity in Sprague-Dawley rat thoracic aorta ring assessed as reduction in micro-vessel growth at 100 uM supplemented with fresh medium containing compound every 3 for 9 days measured on day 9 by matrigel-based inverted microscopic analysis; assay type: functional, tissue-based
HUVEC [5] = test: Antiangiogenic activity in HUVEC assessed as inhibition of capillary-like tube formation at 100 uM after 4 hrs by matrigel-based assay; assay type: functional, cell-based; conditions: Homo sapiens
H22 = test: Anti-metastatic activity against mouse H22 cells implanted in Kunming mouse assessed as reduction in number of metastatic nodes at 60 mg/kg, ip administered once daily for 12 days measured on day 13 by bouin's staining based assay relative to control; assay type: functional; set-up: scale not given: the % may be the effect or the level left
HCT-116 = test: cells; conditions: Homo sapiens, HCT-116, 48 h
cells = conditions: Homo sapiens, ES-2, 48 h
Description: Antiproliferative activity against human ES2 cells after 48 hrs by MTT assay

PLC = test: cells; conditions: Homo sapiens, 48 h
Description: Antiproliferative activity against human PLC cells after 48 hrs by MTT assay

A549 = test: cells; conditions: Homo sapiens, A549, 48 h
MDA-MB-231 = test: Antiproliferative activity against human MDA-MB-231 cells after 48 hrs by MTT assay; conditions: MDA-MB-231, 48 h
PC-3 = test: cells; conditions: Homo sapiens, PC-3, 48 h
K562 = test: cells; conditions: Homo sapiens, K562, 48 h
U-937 = test: cells; conditions: Homo sapiens, U-937, 48 h
Description: Antiproliferative activity against human U937 cells after 48 hrs by MTT assay

HUVEC [6] = test: Antiangiogenic activity in HUVEC assessed as inhibition of capillary-like tube formation after 4 hrs by matrigel-based assay; assay type: functional, cell-based; conditions: Homo sapiens
Mus musculus [7] = test: Toxicity in Kunming mouse implanted with mouse H22 cells assessed as effect on spleen at 60 mg/kg, ip administered once daily for 12 days; assay type: organism-based; conditions: in vivo, 288 h
Mus musculus [8] = test: Hepatotoxicity in Kunming mouse implanted with mouse H22 cells at 60 mg/kg, ip administered once daily for 12 days; assay type: toxicity, organism-based; conditions: in vivo, 288 h
Mus musculus [9] = test: Toxicity in Kunming mouse implanted with mouse H22 cells assessed as body weight loss at 60 mg/kg, ip administered once daily for 12 days measured every 2 days during compound dosing; assay type: organism-based; conditions: in vivo
Thoracic aorta [10] = test: Antiangiogenic activity in Sprague-Dawley rat thoracic aorta ring assessed as reduction in micro-vessel growth supplemented with fresh medium containing compound every 3 for 9 days measured on day 9 by matrigel-based inverted microscopic analysis; assay type: functional, tissue-based

Structure (SMILES)	IC50 (Aminopeptidase N [2])	also measured
COc1ccccc1Cn1cc(CNC(=O)N[C@@H](CC(C)C)C(=O)NO)nn1	650 nM	IC50 (Aminopeptidase N [1]): 15.3 µM; IC50 (Aminopeptidase N [3]): 6.5 µM
CC(C)C[C@H](NC(=O)NCc1cn(Cc2ccc(C#N)cc2)nn1)C(=O)NO	1400 nM	
CCOc1ccccc1Cn1cc(CNC(=O)N[C@@H](CC(C)C)C(=O)NO)nn1	440 nM	IC50 (Aminopeptidase N [1]): 5 µM; IC50 (Aminopeptidase N [3]): 2.1 µM
CC(C)C[C@H](NC(=O)NCc1cn(Cc2ccccc2)nn1)C(=O)NO	2100 nM	
COc1ccc(Cn2cc(CNC(=O)N[C@@H](CC(C)C)C(=O)NO)nn2)cc1OC	2600 nM	
CC(C)C[C@H](NC(=O)NCc1cn(C(c2ccccc2)c2ccccc2)nn1)C(=O)NO	2300 nM	
CCOc1cccc(Cn2cc(CNC(=O)N[C@@H](CC(C)C)C(=O)NO)nn2)c1	820 nM	
Cc1ccccc1Cn1cc(CNC(=O)N[C@@H](CC(C)C)C(=O)NO)nn1	760 nM	IC50 (Aminopeptidase N [1]): 20.6 µM; IC50 (Aminopeptidase N [3]): 6.9 µM
CC(C)C[C@H](NC(=O)NCc1cn(Cc2ccc(Br)cc2)nn1)C(=O)NO	7800 nM	
CC(C)C[C@H](NC(=O)NCc1cn(Cc2cccc(Br)c2)nn1)C(=O)NO	3500 nM	
CC(C)C[C@H](NC(=O)NCc1cn(Cc2cccc(N)c2)nn1)C(=O)NO	3700 nM	
CC(C)C[C@H](NC(=O)NCc1cn(Cc2ccccc2Br)nn1)C(=O)NO	880 nM	
COc1cccc(OC)c1Cn1cc(CNC(=O)N[C@@H](CC(C)C)C(=O)NO)nn1	470 nM	
CC(C)C[C@H](NC(=O)NCc1cn(Cc2cccc(Cl)c2)nn1)C(=O)NO	3100 nM	
CC(C)C[C@H](NC(=O)NCc1cn(Cc2ccc(Cl)c(Cl)c2)nn1)C(=O)NO	5500 nM	
Cc1cccc(C)c1Cn1cc(CNC(=O)N[C@@H](CC(C)C)C(=O)NO)nn1	390 nM	
CC(C)C[C@H](NC(=O)NCc1cn(Cc2ccccc2Cl)nn1)C(=O)NO	670 nM	
CC(C)C[C@H](NC(=O)NCc1cn(Cc2ccc(Cl)cc2)nn1)C(=O)NO	6900 nM	
CC(C)C[C@H](NC(=O)[C@@H](O)[C@H](N)Cc1ccccc1)C(=O)O [UBENIMEX]		Activity (Thoracic aorta [4]): Active; inhibition (HUVEC [5]): Active; Activity (H22): 64%
Cc1ccc(Cn2cc(CNC(=O)N[C@@H](CC(C)C)C(=O)NO)nn2)cc1	3600 nM	
CC(C)C[C@H](NC(=O)NCc1cn(Cc2cccc(OCc3ccccc3)c2)nn1)C(=O)NO	240 nM	IC50 (HCT-116): 130 µM; IC50 (cells): 108 µM; IC50 (Aminopeptidase N [1]): 4.9 µM; IC50 (PLC): 112 µM; IC50 (A549): 128 µM; IC50 (Aminopeptidase N [3]): 0.87 µM; IC50 (MDA-MB-231): 72.6 µM; IC50 (PC-3): 123 µM; IC50 (K562): 99.8 µM; IC50 (U-937): 70.3 µM

Structure (SMILES)	IC50 (Aminopeptidase N [2])	also measured
Cc1cccc(Cn2cc(CNC(=O)N[C@@H](CC(C)C)C(=O)NO)nn2)c1	2200 nM	
COc1cc(Cn2cc(CNC(=O)N[C@@H](CC(C)C)C(=O)NO)nn2)cc(OC)c1OC	1400 nM	
CC(C)C[C@H](NC(=O)NCc1cn(Cc2cccc(C#N)c2)nn1)C(=O)NO	7800 nM	
CC(C)C[C@H](NC(=O)NCc1cn(C/C=C/c2ccccc2)nn1)C(=O)NO	2200 nM	
CC(C)C[C@H](NC(=O)NCc1cn(Cc2cccnc2)nn1)C(=O)NO	2200 nM	
COc1cccc(Cn2cc(CNC(=O)N[C@@H](CC(C)C)C(=O)NO)nn2)c1	910 nM	
CC(C)C[C@H](NC(=O)NCc1cn(Cc2ccc([N+](=O)[O-])cc2)nn1)C(=O)NO	1000 nM	
CC(C)C[C@H](NC(=O)NCc1cn(Cc2ccccc2OCc2ccccc2)nn1)C(=O)NO	89 nM	inhibition (HUVEC [6]): Dose-dependent effect; Activity (Mus musculus [7]): Non-Toxic; Activity (Mus musculus [8]): Non-Toxic; Activity (Mus musculus [9]): Non-Toxic; IC50 (HCT-116): 81.2 µM; IC50 (cells): 105 µM; IC50 (Aminopeptidase N [1]): 1.3 µM; IC50 (PLC): 92.8 µM; Activity (Thoracic aorta [10]): Dose-dependent effect; Activity (H22): 71%; IC50 (A549): 90 µM; IC50 (Aminopeptidase N [3]): 0.74 µM; IC50 (MDA-MB-231): 72.5 µM; IC50 (PC-3): 119 µM; IC50 (K562): 85 µM; IC50 (U-937): 68.4 µM
CC(C)C[C@H](NC(=O)NCc1cn(CCc2ccccc2)nn1)C(=O)NO	3600 nM	
CC(C)C[C@H](NC(=O)NCc1cn(Cc2cccc([N+](=O)[O-])c2)nn1)C(=O)NO	1700 nM	
CC[C@@H](C)[C@H](NC(=O)NCc1cn(Cc2ccccc2)nn1)C(=O)NO	13600 nM	
COc1ccc(Cn2cc(CNC(=O)N[C@@H](CC(C)C)C(=O)NO)nn2)cc1	1900 nM	
CC(C)C[C@H](NC(=O)NCc1cn(Cc2cccc3ccccc23)nn1)C(=O)NO	1400 nM	
CC(C)C[C@H](NC(=O)NCc1cn(Cc2ccc3ccccc3c2)nn1)C(=O)NO	3900 nM	
COc1ccccc1C(C)n1cc(CNC(=O)N[C@@H](CC(C)C)C(=O)NO)nn1 (stereo partly drawn)	550 nM	IC50 (Aminopeptidase N [1]): 12.3 µM; IC50 (Aminopeptidase N [3]): 4.8 µM
CC(C)C[C@H](NC(=O)NCc1cn(C(C)c2ccccc2)nn1)C(=O)NO (stereo partly drawn)	1900 nM	
CCOc1ccc(Cn2cc(CNC(=O)N[C@@H](CC(C)C)C(=O)NO)nn2)cc1	1500 nM	
O=C(NCc1cn(Cc2ccc(Cl)cc2)nn1)N[C@H](C(=O)NO)c1ccccc1	11300 nM	
CC(C)C[C@H](NC(=O)NCc1cn(Cc2c(Cl)cccc2Cl)nn1)C(=O)NO	580 nM	
CC(C)C[C@H](NC(=O)NCc1cn(Cc2ccccc2N)nn1)C(=O)NO	680 nM	
CC(C)C[C@H](NC(=O)NCc1cn(Cc2ccccc2[N+](=O)[O-])nn1)C(=O)NO	3400 nM	
